These results are taken from ChEMBL document CHEMBL1155508, “Discovery of TRPV1 antagonist ABT-116” (Bioorg Med Chem Lett, 2010).

pIC50: −log10 of the molar value. In brackets after ≈: the same amount, converted by molar mass.

Data set [1] has as its target T1, Transient receptor potential cation channel subfamily V member 1 (Homo sapiens, UniProt Q8NER1). The data set can be described thus: Antagonist activity at human TRPV1. Type of data set: functional.
The subject of data set [2] is Rattus norvegicus. The data set can be described thus: Antiinflammatory activity against complete Freund's adjuvant-induced thermal hyperalgesia in po dosed rat. Type of data set: functional.
Data set [3] is described as follows: Ratio of drug level in brain to plasma in rat at 10 µmol/kg, po. The following applies: read-out: BPR.
Data set [4] addresses T1, Transient receptor potential cation channel subfamily V member 1. As to the kind of experiment: Antagonist activity at human TRPV1 expressed in HEK293 cells assessed as inhibition of capsaicin-induced effect by capsaicin.
The target of a further data set is CYP3A4 (Homo sapiens, UniProt P08684). The data set can be described thus: Inhibition of CYP3A4 assessed as midazolam oxidation at 10 uM. It counts as ADME. The following applies: probe midazolam.
Data set [5] concerns Rattus norvegicus. As to the kind of experiment: Antiinflammatory activity against carrageenan-induced thermal hyperalgesia in po dosed rat. Type of data set: functional.
The nature of data set [6]: Cmax in rat at 10 µmol/kg, po. To be noted: in vivo.
Data set [7] in a line: Half life in rat at 10 µmol/kg, po. The following applies: in vivo.
Data set [8] addresses T1, Transient receptor potential cation channel subfamily V member 1. As to the kind of experiment: Antagonist activity at human TRPV1 expressed in HEK293 cells assessed as inhibition of N-arachidonoyl-dopamine-induced effect. Type of data set: functional, cell-based.
Data set [9] concerns the target Transient receptor potential cation channel subfamily V member 1 (Rattus norvegicus, UniProt O35433). The data set can be described thus: Antagonist activity at rat TRPV1 assessed as inhibition of capsaicin-induced effect. It counts as functional.
The subject of data set [10] is Rattus norvegicus. The data set can be described thus: Antiinflammatory activity in rat osteoarthritis model assessed as reduction of pain in rat at 10 umol/kg, po bid measured after 12 days. It counts as functional. More on the design: scale not given: the % may be the effect or the level left.
A short description of data set [11]: Oral bioavailability in rat at 10 µmol/kg. The following applies: in vivo.
In data set [12] the test system is Rattus norvegicus. As to the kind of experiment: Toxicity in rat assessed as increase of body temperature at 100 umol/kg, po after 1 hr. The following applies: in vivo. Type of data set: organism-based.
Data set [13] has as its system Rattus norvegicus. The data set can be described thus: Antiinflammatory activity in rat osteoarthritis model assessed as reduction of pain in rat at 10 umol/kg, po single dose. Details: scale not given: the % may be the effect or the level left.
Data set [14] relates to Rattus norvegicus. The data set can be described thus: Antiinflammatory activity in rat post operative pain model assessed as reduction in pain in rat at 100 umol/kg, po single dose. Details: scale not given: the % may be the effect or the level left.
The subject of data set [15] is Rattus norvegicus. As to the kind of experiment: Antiinflammatory activity in rat osteoarthritis model assessed as inhibition of thermal hyperalgesia in po dosed rat. Type of data set: functional.
For data set [16], the system named is Rattus norvegicus. As to the kind of experiment: Plasma clearance in rat at 10 µmol/kg, po. To be noted: in vivo.
Data set [17] can be described thus: Aqueous solubility of the compound. Type of data set: physicochemical.
Data set [18] deals with Rattus norvegicus. As to the kind of experiment: Volume of distribution at steady state in rat at 10 µmol/kg, po. To be noted: in vivo.
The nature of data set [19]: Solubility in lipid. It counts as physicochemical.
Another data set addresses Cytochrome P450 3A4 (Homo sapiens, UniProt P08684). The data set can be described thus: Inhibition of CYP3A4. It counts as ADME. To be noted: TDE = time-dependent effect.
The nature of data set [20]: Genotoxicity in Salmonella Typhimurium by Ames test. It counts as toxicity. To be noted: salmonella enterica subsp. enterica serovar typhimurium. A general note: In the Ames test, an excess of revertant colonies over the control signals mutagenicity.
Data set [21] can be described thus: Terminal phase volume of distribution at steady state in iv dosed rat. It counts as ADME, organism-based. To be noted: in vivo, read-out: Vbeta.
The nature of data set [22]: Plasma clearance in iv dosed rat. It counts as ADME, organism-based.
Data set [23] can be described thus: Solubility in PEG-400. Type of data set: physicochemical.

T1 sequence (Q8NER1 whole entry): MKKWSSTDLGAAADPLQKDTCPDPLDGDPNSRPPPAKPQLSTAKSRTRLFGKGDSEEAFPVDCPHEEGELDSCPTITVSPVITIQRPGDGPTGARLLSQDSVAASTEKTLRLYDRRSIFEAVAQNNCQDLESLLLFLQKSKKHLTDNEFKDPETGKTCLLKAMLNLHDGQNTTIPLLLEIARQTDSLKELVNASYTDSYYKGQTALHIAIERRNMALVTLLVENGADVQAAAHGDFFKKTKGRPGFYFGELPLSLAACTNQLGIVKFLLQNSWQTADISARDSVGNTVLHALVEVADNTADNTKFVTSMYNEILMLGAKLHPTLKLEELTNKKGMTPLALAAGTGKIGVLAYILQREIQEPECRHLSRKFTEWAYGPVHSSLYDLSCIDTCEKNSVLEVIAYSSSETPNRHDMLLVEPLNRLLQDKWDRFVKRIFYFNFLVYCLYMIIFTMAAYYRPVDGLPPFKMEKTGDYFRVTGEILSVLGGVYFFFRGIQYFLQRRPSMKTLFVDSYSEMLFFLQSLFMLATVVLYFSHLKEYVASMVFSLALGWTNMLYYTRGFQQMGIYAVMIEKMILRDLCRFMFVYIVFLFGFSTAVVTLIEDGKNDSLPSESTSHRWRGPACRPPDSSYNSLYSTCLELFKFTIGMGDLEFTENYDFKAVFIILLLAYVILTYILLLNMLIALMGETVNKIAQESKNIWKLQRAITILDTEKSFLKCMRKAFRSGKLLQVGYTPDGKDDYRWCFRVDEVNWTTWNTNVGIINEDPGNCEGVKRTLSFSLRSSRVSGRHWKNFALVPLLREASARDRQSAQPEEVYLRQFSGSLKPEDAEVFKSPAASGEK
Sequence of CYP3A4 (P08684 whole entry): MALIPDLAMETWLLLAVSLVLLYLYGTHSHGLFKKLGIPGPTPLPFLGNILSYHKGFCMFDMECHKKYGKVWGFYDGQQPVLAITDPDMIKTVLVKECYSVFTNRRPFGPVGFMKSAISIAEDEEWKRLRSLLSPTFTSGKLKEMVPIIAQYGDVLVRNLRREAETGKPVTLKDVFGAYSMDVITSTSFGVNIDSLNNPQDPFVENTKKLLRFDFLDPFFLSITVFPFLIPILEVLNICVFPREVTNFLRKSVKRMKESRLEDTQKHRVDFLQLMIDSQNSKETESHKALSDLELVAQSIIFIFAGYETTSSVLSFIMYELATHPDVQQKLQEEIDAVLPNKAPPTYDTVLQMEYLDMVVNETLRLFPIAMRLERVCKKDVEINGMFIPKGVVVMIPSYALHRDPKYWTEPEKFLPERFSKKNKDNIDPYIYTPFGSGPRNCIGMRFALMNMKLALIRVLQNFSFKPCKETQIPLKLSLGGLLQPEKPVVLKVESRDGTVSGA
Sequence of Cytochrome P450 3A4 (P08684 whole entry): as above
Sequence of Transient receptor potential cation channel subfamily V member 1 (Rattus norvegicus, UniProt O35433) (O35433 whole entry): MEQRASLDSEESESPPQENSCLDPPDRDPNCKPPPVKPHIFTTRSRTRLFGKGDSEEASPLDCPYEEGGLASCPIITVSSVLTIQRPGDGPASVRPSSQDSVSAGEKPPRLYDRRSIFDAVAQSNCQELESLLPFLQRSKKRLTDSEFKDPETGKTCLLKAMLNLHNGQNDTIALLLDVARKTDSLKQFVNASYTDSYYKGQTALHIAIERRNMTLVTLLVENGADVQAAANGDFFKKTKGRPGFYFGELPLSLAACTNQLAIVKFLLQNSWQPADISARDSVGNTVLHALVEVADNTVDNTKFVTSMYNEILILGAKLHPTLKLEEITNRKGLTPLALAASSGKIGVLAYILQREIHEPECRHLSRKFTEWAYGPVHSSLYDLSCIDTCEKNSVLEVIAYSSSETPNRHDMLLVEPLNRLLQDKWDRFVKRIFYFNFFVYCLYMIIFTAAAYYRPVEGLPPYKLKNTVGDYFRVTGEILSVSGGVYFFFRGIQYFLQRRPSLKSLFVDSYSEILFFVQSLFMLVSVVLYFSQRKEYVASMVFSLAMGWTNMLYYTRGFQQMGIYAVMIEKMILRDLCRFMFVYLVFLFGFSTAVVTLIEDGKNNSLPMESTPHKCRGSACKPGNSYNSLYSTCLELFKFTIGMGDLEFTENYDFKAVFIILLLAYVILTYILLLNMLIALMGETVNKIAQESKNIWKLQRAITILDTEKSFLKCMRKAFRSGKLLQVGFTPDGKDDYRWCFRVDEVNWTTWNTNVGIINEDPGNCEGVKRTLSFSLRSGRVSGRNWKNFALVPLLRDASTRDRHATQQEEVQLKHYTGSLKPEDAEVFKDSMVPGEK

The pIC50 is −log10 of the IC50, conventionally taken in molar units. The term ED50 denotes the dose that gives a 50% effect, or the effect in half of the subjects. The molecule `O=C(NCc1ccc(C(F)(F)F)nc1N1CCOCC1)Nc1cccc2[nH]ncc12` had a pIC50 in data set [1] of 7.92. Further, the ED50 with Rattus norvegicus [2] is 33 µmol/kg.

In data set [1], `Cc1ccc(CNC(=O)Nc2cccc3[nH]ncc23)c(N2CCOCC2)n1` showed a pIC50 of 6.90.

Molecule `O=C(NCc1ccc(C(F)(F)F)cc1CCc1ccccc1)Nc1cccc2[nH]ncc12` gave a pIC50 in data set [1] of 8.10. Moreover, the ED50 in the data set on Rattus norvegicus [2] stood at 30 µmol/kg.

For `O=C(NCc1ccc(C(F)(F)F)cc1Oc1ccccc1)Nc1cccc2[nH]ncc12`, the pIC50 in data set [1] is 8.05. The ED50 in the data set with Rattus norvegicus [2] was determined as 22 µmol/kg.

As to `O=C(NCc1ccc(C(F)(F)F)nc1N1CCCCC1)Nc1cccc2[nH]ncc12`, the pIC50 in data set [1] is 8.46. Further, the ED50 in the data set with Rattus norvegicus [2] amounted to 30 µmol/kg.

For `Cc1ccc(CNC(=O)Nc2cccc3[nH]ncc23)c(N2CCCCC2)n1`, in data set [1], the pIC50 is 7.80. Also, the ED50 in the data set on Rattus norvegicus [2] worked out at 53 µmol/kg.

The molecule `CC(C)(C)CCc1nc(C(F)(F)F)ccc1CNC(=O)Nc1cccc2[nH]ncc12` had a pIC50 in [1] of 8.30. In addition, the ED50 in the data set with Rattus norvegicus [2] stood at 100 µmol/kg.

Molecule `COCCCc1cc(C(F)(F)F)ccc1CNC(=O)Nc1cccc2[nH]ncc12` gave a pIC50 in data set [1] of 8.10.

In data set [1], `CC(C)(C)COc1nc(C(F)(F)F)ccc1CNC(=O)Nc1cccc2[nH]ncc12` gave a pIC50 of 8.22. Also, the Kp in [3] was found to be 0.02. In addition, the ED50 in the data set on Rattus norvegicus [2] is above 100 µmol/kg.

For `CCn1ncc2c(NC(=O)NCc3ccc(C(F)(F)F)cc3CCC(C)(C)C)cccc21`, the pIC50 in data set [4] was 7.28.

As to `CC(C)n1ncc2c(NC(=O)NCc3ccc(C(F)(F)F)cc3CCC(C)(C)C)cccc21`, the pIC50 in data set [4] was 7.16.

What is called inhibition is the percentage by which the read-out fell short of the control. Broadly, the Cmax is the maximum level reached in the sampled fluid or tissue. For orientation: half-life means the time in which the quantity being followed falls by half. A word on the bioavailability: it is dose-corrected exposure relative to a reference, in per cent. Usually solubility stands for how much of the substance goes into solution per volume. `Cn1ncc2c(NC(=O)NCc3ccc(C(F)(F)F)cc3CCC(C)(C)C)cccc21`: at CYP3A4, the inhibition at 10 µM stood at 10%. For the same molecule, the ED50 in the data set with Rattus norvegicus [5] is 25 µmol/kg; in the data set on Rattus norvegicus [15], 66 µmol/kg. This molecule also came in with a Cmax in [6] of 140 ng/mL. Also, the half-life in [7] is 186 min. The pIC50 in [8] is 7.82; in data set [4] it was 8.15; in [9], 6.56. For the same molecule, the Activity amounted to 67% in the data set on Rattus norvegicus [10], 20% in the data set on Rattus norvegicus [13] and 45% in the data set on Rattus norvegicus [14]. Besides, the Kp in data set [3] turned out to be 0.32. The molecule also registered a bioavailability in data set [11] of 58%. Besides, the T in the data set on Rattus norvegicus [12] was 0.9 °C. For the same molecule, the clearance in the data set on Rattus norvegicus [16] amounted to 0.8 L/kg/h. The results for the solubility in [17] and in [19] were below 0.01 µg/mL and above 67 µg/mL, respectively. Besides, the Vdss in the data set with Rattus norvegicus [18] was determined as 3.4 L/kg.

Molecule `O=C(NCc1ccc(C(F)(F)F)nc1)Nc1cccc2[nH]ncc12` showed a pIC50 in data set [1] of 6.74. Besides, the median effective dose (ED50) in the data set with Rattus norvegicus [2] was found to be 81 µmol/kg.

Molecule `O=C(NCc1ccc(C(F)(F)F)nc1Oc1ccccc1)Nc1cccc2[nH]ncc12` gave a pIC50 in [1] of 8.05. Moreover, in the data set with Rattus norvegicus [2], the ED50 stood at 30 µmol/kg.

The molecule `COCCOc1nc(C(F)(F)F)ccc1CNC(=O)Nc1cccc2[nH]ncc12` had a pIC50 in data set [1] of 7.74.

Molecule `COCCCc1nc(C(F)(F)F)ccc1CNC(=O)Nc1cccc2[nH]ncc12` had a pIC50 in data set [1] of 7.92. The ED50 in the data set on Rattus norvegicus [2] was above 30 µmol/kg.

The molecule `CC(C)c1cc(C(F)(F)F)ccc1CNC(=O)Nc1cccc2[nH]ncc12` gave a pIC50 in data set [1] of 8.05. Besides, the ED50 with Rattus norvegicus [2] came to 14 µmol/kg.

In the case of `CC(C)(F)CCc1cc(C(F)(F)F)ccc1CNC(=O)Nc1cccc2[nH]ncc12`, in data set [1], the pIC50 is 8.22. For the same molecule, the ED50 in the data set on Rattus norvegicus [2] was 58 µmol/kg.

For `CC(C)(C)CCc1cc(C(F)(F)F)ccc1CNC(=O)Nc1cccc2[nH]ncc12`, on CYP3A4, the inhibition at 10 µM came out at 86%. The ED50 came to 7 µmol/kg in the data set on Rattus norvegicus [5], 71 µmol/kg in the data set with Rattus norvegicus [15] and 15 µmol/kg in the data set on Rattus norvegicus [2]. In data set [7], this molecule had a half-life of 258 min. Moreover, the “inhibition (INH)” value at Cytochrome P450 3A4 was “tde”. The pIC50 in [1] is 8.37. The Activity entry in data set [20] is given as “Non-toxic”. Also, the Kp in [3] worked out at 0.45. Further, the bioavailability in [11] was 35%. Moreover, the Vd in [21] is 5.4 L/kg. For the same molecule, in data set [22], the clearance is 20 mL/min/kg. Also, the solubility in data set [23] was above 100 µg/mL; in data set [17], 0.42 µg/mL (≈ 1 µM).

`O=C(NCc1ccc(-c2ccccc2)nc1N1CCCCC1)Nc1cccc2[nH]ncc12`: the pIC50 in [1] is 7.85. Also, the ED50 in the data set with Rattus norvegicus [2] stood at 37 µmol/kg.

As for `CC(C)(C)c1ccc2c(c1)CC[C@H]2NC(=O)Nc1cccc2[nH]ncc12` [ABT-102], in data set [3], the Kp was found to be 0.32.
